One data set deals with N. asteroids. The data set can be described thus: MIC determination procedure for Mycobacterium species (Protocol 4). The settings on record: N. asteroids 2039. Format: cell-based.
A further data set deals with Bacillus cereus. Nature of the data set: Gyrase MIC, microdilution broth method (Protocol 1). Format: cell-based. On the technique in general: Broth dilution looks for growth in wells or tubes with falling amounts of substance.
The next data set concerns Pseudomonas aeruginosa. The data set can be described thus: Gyrase MIC against Gram negatives, microdilution broth method (Protocol 2).
The next data set concerns Staphylococcus aureus. Nature of the data set: microbe, parasite or virus in culture. The format is cell-based.
The test system of the next data set is N. nova. Nature of the data set: MIC determination procedure for Mycobacterium species (Protocol 4). Format: cell-based. The following applies: N. nova 10.
The next data set can be described thus: Aqueous solubility study. Format: physicochemical. The following applies: 96 h. As for the experimental part:
The aqueous solubilities of compound 23 and compound W were determined according to the following procedure.
Preparation of Samples. Aqueous samples of each compound were prepared as follows. Compounds were weighed (20-30 mg compound) in 4 ml clear vials prior to adding water (0.5 mL) and stirring by magnetic stirrer. 1.0N HCl was added to the suspension to adjust the pH to the desired range. After stirring for 96 hours at room temperature, the suspension was filtered through a 0.22 micron filter (Millipore, Ultrafree centrifugal filters, Durapore PVDF 0.22 μm, Cat# UFC30GVNB). The filtrate was collected and the pH measured with a pH meter.
Preparation of Standard Solutions. […]
Solubility Analysis. Aliquots of each sample and each standard solution were analyzed by HPLC analysis (Agilent 1100, injection volume 10 μL, wavelength 271 nm, column XTerra® Phenyl 5 μm, 4.6×50 mm, Part No. 186001144, mobile phase: A: 0.1% TFA in water 0.1% TFA in AcN). […] Standard curves were obtained by plotting the average of the peak area from the HPLC versus the concentrations of the standard solutions (with appropriate corrections of the weights of the standards based on total water content of the solid as determined by elemental analysis). The concentration of each sample was calculated from the peak area of the aqueous sample from the HPLC results and the slope and intercept of the standard curves. […]

The next data set concerns S. aureus (ATCC 29213). Nature of the data set: Mouse S. aureus kidney infection model. The format is in vivo, CD-1 mice. The procedure: Animals: female CD-1 mice (8-10 weeks of age; 6/group), were obtained from Charles River Laboratories and were housed and maintained in accordance with the Guide to the Care and Use of Experimental Animals. Methicillin-sensitive S. aureus (MSSA) strain ATCC 29213 was obtained from the American Type Culture Collection. To prepare stocks for animal studies S. aureus was plated on Mueller Hinton Agar plates and incubated at 37° C. overnight. 3-4 colonies from the plate were used to inoculate 5 mL Mueller Hinton Broth (MHB) that was incubated for 8 hours at 37° C. with shaking at 300 RPM. The 5 mL 8-hour culture was diluted 20-fold into 100 mL and incubated overnight (12-14 hours). The bacteria were pelleted for 20 minutes at 3000× and washed twice with Phosphate-Buffered Saline (PBS) containing 0.5% Bovine Serum Albumin (BSA). Aliquots (1 mL) containing ˜1×10^10 cfu in PBS/20% Glycerol were frozen and stored at −80° C. until the day of use. Stock titers were confirmed by serial dilution and plating on Mueller Hinton agar plates. Prior to inoculation, bacterial stocks were thawed and washed once with PBS/BSA. The stocks were then diluted with PBS/BSA to a final concentration of 1×10^9 cfu/mL to give an inoculum of approximately 1-2×10^8 cfu per mouse in a volume of 100 uL. […] Injections were given intravenously via the tail vein using a sterile 30 gauge needle. Upon completion of the mouse infections, the bacterial stocks used to challenge the mice were plated and counted to verify the concentration of the inocula. […] Fisher Scientific). During collection and homogenization all of the samples were kept on ice and the homogenizer was washed thoroughly and sterilized between each sample. Homogenates were serially diluted in sterile PBS/BSA and plated on MH agar to determine bacterial counts per pair of kidneys. CD-1 mice (6/group) were challenged IV with S. aureus (ATCC 29213) at 2×10^8 cfu/mouse. […] The 30-minute and 6-hour treatment groups were treated once, while the 24-hour group received a second treatment 10 hours after the first dose. […] Burdens from pairs of kidneys for each mouse and the median for each group of mice were calculated. CD-1 mice (6/group) were challenged IV with S. aureus (ATCC 29213) at 2×10^8 cfu/mouse. After 2 hours a single group of mice (Early Control (EC)) was euthanized and the kidneys harvested, homogenized and plated to quantitate S. aureus burdens. The additional groups of infected mice were treated via oral gavage with Vehicle at 10 ml/kg (10% VitE TPGS; […] After 24 hours the groups of treated mice were euthanized and the kidneys harvested, homogenized and plated to quantitate S. aureus burdens. Burdens from pairs of kidneys for each mouse and the median for each group of mice were summarized. CD-1 mice (8/group) were challenged IV with S. aureus (ATCC 29213) at 2×10^8 cfu/mouse. After 2 hours a single group of mice (Early Control (EC)) was euthanized and the kidneys harvested, homogenized and plated to quantitate S. aureus burdens. The additional groups of infected mice were treated via oral gavage with Vehicle at 10 ml/kg (Water; […] After 24 hours the groups of treated mice were euthanized and the kidneys harvested, homogenized and plated to quantitate S. aureus burdens. Burdens from pairs of kidneys for each mouse and the median for each group of mice were summarized.

Where [1] appears, read: ATCC10987, Bacillus cereus ATCC 10987.
Where [2] appears, read: ATCC14579, Bacillus cereus ATCC 14579.
[3] abbreviates: ATCC29213, Staphylococcus aureus ATCC 29213, Protocol 1, read-out: MIC.
Where [4] appears, read: ATCC29213, Staphylococcus aureus ATCC 29213 GyrB T173I, Protocol 1.
[5] abbreviates: ATCC29213, Staphylococcus aureus ATCC 29213 with Mouse Serum, Protocol 1, read-out: MIC.
Where [6] appears, read: ATCC29213, Staphylococcus aureus ATCC 29213 with Rat Serum, Protocol 1, read-out: MIC.
Setting [7] is: 10 mg/kg oral gavage, second treatment 10 hours after first, 24 Hours.
Setting [8] is: 10 mg/kg oral gavage, treated once, 6 Hours.
The mark [9] stands for this setting: 30 mg/kg oral gavage, second treatment 10 hours after first, 24 Hours.
[10] abbreviates: 30 mg/kg oral gavage, treated once, 6 Hours.
Where [11] appears, read: 30 mg/kg oral gavage, treated once, 30 Minutes.
[12] abbreviates: 100 mg/kg oral gavage, second treatment 10 hours after first, 24 Hours.
Where [13] appears, read: 100 mg/kg oral gavage, treated once, 6 Hours.
[14] abbreviates: 100 mg/kg oral gavage, treated once, 30 Minutes.
[15] abbreviates: single oral dose 10 mg/kg, after 24 hours.
The mark [16] stands for this setting: single oral dose 30 mg/kg, after 24 hours.
Where [17] appears, read: single oral dose 60 mg/kg, after 24 hours.
[18] abbreviates: single oral dose 100 mg/kg, after 24 hours.

Where a name gives a salt, the structure may show the parent alone. Read-outs that look alike come from different tables or passages of the source.

Take `CCNC(=O)Nc1nc2cc(-c3cnc(C(C)(C)O)nc3)cc([C@H]3CCCO3)c2[nH]1` [Compound 13, methanesulfonic acid salt of 1-ethyl-3-[5-[2-(1-hydroxy-1-methyl-ethyl)pyrimidin-5-yl]-7-[(2R)-tetrahydrofuran-2-yl]-1H-benzimidazol-2-yl]urea]: the MIC against N. asteroids was 8 µg/mL; with Bacillus cereus (setting [1]), 0.5 µg/mL; in the data set on Bacillus cereus (setting [2]) it was 0.5 µg/mL; with Pseudomonas aeruginosa it was 0.33 µg/mL; in the data set with Pseudomonas aeruginosa (PAO1), greater than 16 µg/mL; in the data set with Staphylococcus aureus (setting [3]), 0.13 µg/mL. The MIC stood at 1.29 µg/mL in the data set on Staphylococcus aureus (setting [4]); 0.31 µg/mL in the data set on Staphylococcus aureus (ATCC29213, Staphylococcus aureus ATCC 29213 with Human Serum, Protocol 1, read-out: MIC); 2 µg/mL in the data set on Staphylococcus aureus (setting [5]); 0.53 µg/mL in the data set on Staphylococcus aureus (setting [6]); 8 µg/mL with N. nova. The MIC90 against Pseudomonas aeruginosa is greater than 8 µg/mL; in the data set with Staphylococcus aureus (67 isolates tested, Protocol 1), 0.25 µg/mL. Further, in the data set with Staphylococcus aureus (67 isolates tested, Protocol 1), the “MIC Range” value fell in the range of 0.03 to 0.5 µg/mL.

As a reminder, the Solubility is the dissolved amount per volume that the medium holds. In the data set “Aqueous solubility study”, `CCNC(=O)Nc1nc2cc(-c3cnc(C(C)(C)O)nc3)c(F)c([C@H]3CCCO3)c2[nH]1` [Compound 23, 1-ethyl-3-[6-fluoro-5-[2-(1-hydroxy-1-methyl-ethyl)pyrimidin-5-yl]-7-[(2R)-tetrahydrofuran-2-yl]-1H-benzimidazol-2-yl]urea] gave a Solubility of less than 1 µg/mL.

For the compound `CCNC(=O)Nc1nc2cc(-c3cnc(C(C)(C)O)nc3)c(F)c([C@H]3CCCO3)c2[nH]1` [Compound 23A, methanesulfonic acid salt of 1-ethyl-3-[6-fluoro-5-[2-(1-hydroxy-1-methyl-ethyl)pyrimidin-5-yl]-7-[(2R)-tetrahydrofuran-2-yl]-1H-benzimidazol-2-yl]urea], the MIC in the data set on N. asteroids was 1 µg/mL; in the data set on Bacillus cereus (setting [1]) it was 0.031 µg/mL; in the data set with Bacillus cereus (setting [2]), 0.031 µg/mL; against Pseudomonas aeruginosa, 0.25 µg/mL; against Pseudomonas aeruginosa (PAO1), greater than 16 µg/mL; in the data set on Staphylococcus aureus (setting [3]), 0.021 µg/mL. Moreover, the MIC in the data set on Staphylococcus aureus (setting [4]) worked out at 0.3 µg/mL; in the data set on Staphylococcus aureus (setting [5]), 0.5 µg/mL; in the data set on Staphylococcus aureus (setting [6]), 0.18 µg/mL; in the data set with N. nova, 1 µg/mL. For the same compound, the MIC90 against Pseudomonas aeruginosa is greater than 8 µg/mL; against Staphylococcus aureus (67 isolates tested, Protocol 1) it was 0.03 µg/mL. In addition, the “Median Kidney Burden (Log cfu/kidneys)” value in the data set on S. aureus (ATCC 29213) (10 mg/kg oral gavage 2 h post challenge, treated once, time of treatment 30 Minutes) was found to be 4.84 Log cfu/kidneys; with S. aureus (ATCC 29213) (setting [7]), 4.48 Log cfu/kidneys; with S. aureus (ATCC 29213) (setting [8]), 4.84 Log cfu/kidneys; in the data set with S. aureus (ATCC 29213) (setting [9]), 3.44 Log cfu/kidneys; in the data set on S. aureus (ATCC 29213) (setting [10]), 4.62 Log cfu/kidneys; in the data set with S. aureus (ATCC 29213) (setting [11]), 4.97 Log cfu/kidneys. In addition, the “Median Kidney Burden (Log cfu/kidneys)” value stood at 3.49 Log cfu/kidneys with S. aureus (ATCC 29213) (setting [12]); 4.55 Log cfu/kidneys in the data set on S. aureus (ATCC 29213) (setting [13]); 4.89 Log cfu/kidneys in the data set with S. aureus (ATCC 29213) (setting [14]); 4.73 Log cfu/kidneys in the data set on S. aureus (ATCC 29213) (single oral dose 10 mg/kg 2 h post challenge, after 24 hours); 4.32 Log cfu/kidneys in the data set on S. aureus (ATCC 29213) (setting [16]); 3.52 Log cfu/kidneys in the data set on S. aureus (ATCC 29213) (setting [17]). Also, in the data set with S. aureus (ATCC 29213) (setting [18]), the “Median Kidney Burden (Log cfu/kidneys)” value turned out to be 3.31 Log cfu/kidneys. Further, the “Log Difference vs. Vehicle Control” value is −1.87 in the data set on S. aureus (ATCC 29213) (setting [7]); −0.37 in the data set on S. aureus (ATCC 29213) (setting [8]); −0.14 with S. aureus (ATCC 29213) (10 mg/kg oral gavage, treated once, 30 Minutes); −2.90 in the data set with S. aureus (ATCC 29213) (setting [9]); −0.59 with S. aureus (ATCC 29213) (setting [10]); 0.00 with S. aureus (ATCC 29213) (setting [11]). For the same compound, the “Log Difference vs. Vehicle Control” value in the data set on S. aureus (ATCC 29213) (setting [12]) was −2.86; in the data set on S. aureus (ATCC 29213) (setting [13]) it was −0.66; with S. aureus (ATCC 29213) (setting [14]) it was −0.08. For the same compound, in the data set on S. aureus (ATCC 29213) (30 minutes after the initial treatment, 10, 30, 100 mg/kg oral), the “kidney burden, compound- versus vehicle-treated mice” value is “no difference in kidney burden”. Further, in the data set with S. aureus (ATCC 29213) (6 hours after the first dose, 30 and 100 mg/kg oral), the “log reduction versus the 30 minute early control” value is listed as 0.3-0.4 log. The “reduction of bacterial burdens in the kidneys versus time-matched vehicle control” value in the data set with S. aureus (ATCC 29213) (6 hours after the first dose, all compound treatments (10, 30, 100 mg/kg oral)) is given as 0.4-0.6 logs. In addition, the “log reduction versus the 24-hour vehicle-treated control” value was 1.8 log in the data set with S. aureus (ATCC 29213) (24 hours, 10 mg/kg BID oral); 2.8-2.9 log in the data set with S. aureus (ATCC 29213) (24 hours, 30 and 100 mg/kg BID oral). Further, in the data set on S. aureus (ATCC 29213) (24 hours, 30 and 100 mg/kg oral), the “log reductions versus the 30-minute vehicle-treated control” value is listed as “approximately 1.5 log”. For the same compound, the “Log Reduction vs. Early Control” value is 0.00 with S. aureus (ATCC 29213) (setting [15]), −0.40 in the data set on S. aureus (ATCC 29213) (setting [16]), −1.21 with S. aureus (ATCC 29213) (setting [17]) and −1.42 in the data set on S. aureus (ATCC 29213) (setting [18]). The “Log Reduction vs. Late Control” value with S. aureus (ATCC 29213) (setting [15]) is given as −1.90; in the data set with S. aureus (ATCC 29213) (setting [16]) it was −2.31; with S. aureus (ATCC 29213) (setting [17]), −3.11; in the data set with S. aureus (ATCC 29213) (setting [18]), −3.32. In addition, the “log reductions versus vehicle control” value in the data set with S. aureus (ATCC 29213) (setting [15]) stood at 1.9 log; in the data set with S. aureus (ATCC 29213) (setting [16]), 2.3 log; in the data set on S. aureus (ATCC 29213) (setting [17]), 3.1 log; in the data set on S. aureus (ATCC 29213) (setting [18]) it was 3.3 log. The “reduction of bacterial burdens versus the early control” value with S. aureus (ATCC 29213) (single oral doses of 60 and 100 mg/kg, after 24 hours) is 1.2-1.4 logs.

The record behind these values is US8481551B2, “Gyrase and topoisomerase IV inhibitors” (Vertex Pharmaceuticals Incorporated, priority 2011, dated 2013).
